Read-outs that look alike come from different tables or passages of the source.
Key:
Human BOAT1 = molecular target: T1, Human BOAT1 (Homo sapiens, UniProt Q695T7); assay: hBOAT1 inhibitory test (phenylalanine uptake); format: cell-based; settings: Human BOAT1 stable expression CHO cells, phenylalanine 0.25 mM, read-out: hB0AT1 IC50
T1 construct: expressed in transfected cells
T1 sequence (Q695T7 1-634): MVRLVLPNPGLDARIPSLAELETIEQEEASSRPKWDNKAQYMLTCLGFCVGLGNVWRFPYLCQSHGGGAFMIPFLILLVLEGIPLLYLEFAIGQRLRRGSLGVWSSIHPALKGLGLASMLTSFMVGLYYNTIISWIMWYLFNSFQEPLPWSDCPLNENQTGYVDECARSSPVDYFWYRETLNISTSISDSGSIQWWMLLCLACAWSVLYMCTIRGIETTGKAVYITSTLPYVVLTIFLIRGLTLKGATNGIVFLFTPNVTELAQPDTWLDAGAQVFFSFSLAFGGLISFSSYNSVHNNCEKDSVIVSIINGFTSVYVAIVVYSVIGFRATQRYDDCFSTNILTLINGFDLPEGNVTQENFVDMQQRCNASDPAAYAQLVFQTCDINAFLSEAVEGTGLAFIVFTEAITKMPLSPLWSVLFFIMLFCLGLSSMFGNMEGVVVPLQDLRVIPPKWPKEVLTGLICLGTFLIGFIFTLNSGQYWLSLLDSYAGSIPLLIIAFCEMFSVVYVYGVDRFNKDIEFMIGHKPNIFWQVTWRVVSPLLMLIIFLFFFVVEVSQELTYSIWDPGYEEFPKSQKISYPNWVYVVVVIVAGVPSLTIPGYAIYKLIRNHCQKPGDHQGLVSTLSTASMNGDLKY
Procedure, shortened: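 Human BOAT1 stably expressed in CHO cells (75000 cells/well) in HEPES-buffered NaCl/KCl/CaCl2/MgCl2 buffer with 0.01% BSA, compound at 0.5% DMSO, preincubated ≥30 min at ordinary temperature. Uptake of L-phenylalanine plus [3H]-L-phenylalanine (0.25 mM final) read by scintillation proximity; 100–200 min values analysed, non-specific uptake defined with […] reference inhibitor.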

hERG channel = molecular target: T2, hERG channel (Homo sapiens, UniProt Q12809); assay: hERG channel inhibitory activity, whole-cell patch clamp (auto-patch clamp system); format: cell-based; settings: read-out: hERG IC50
T2 construct: host or cells: CHO cells
Method: Evaluation of hERG (Human Ether-a-go-go Related Gene) Channel Inhibitory Activity
The hERG channel inhibitory activity of the compound of the present invention was measured using CHO cells (B′ SYS GmbH) forcibly expressing hERG channels involved in human rapidly active delayed rectifier potassium current (IKr) by the whole-cell patch clamp method using an auto-patch clamp system (SyncroPatch384PE).
Cell suspension, extracellular fluid, intracellular fluid, and measurement plate (NPC-384 plate) were placed in the auto-patch clamp system, and hERG current measurements were performed using the whole-cell patch clamp method. The voltage protocol was set to a holding potential of −80 mV, with a depolarizing pulse preceded by −90 mV (100 ms) and followed by −80 mV (100 ms).
The depolarizing pulse was […] (500 ms), and then the hERG peak current value obtained during the ramp phase was measured when the voltage was lowered to −80 mV over 100 ms. The protocol was applied at 5-second intervals for 5 minutes for each concentration.
SyncroPatch software (manufactured by Nanion) was used for data analysis. Four concentrations were applied incrementally for each test substance, and the average hERG Peak current value obtained from the last three stimuli of each applied concentration was used as the evaluation data. The IC50 value was calculated from the inhibition rate of the current at each concentration of each test substance relative to the pre-application value using Hill's equation (Hill equation) using the relevant software.
The same experiments were also performed using the example compounds described in WO 2023/145804 as comparative example compounds 1-4.

[1] = [3H]-L-phenylalanine uptake, radioactivity after 100 to 200 min

T2 sequence (Q12809 whole entry): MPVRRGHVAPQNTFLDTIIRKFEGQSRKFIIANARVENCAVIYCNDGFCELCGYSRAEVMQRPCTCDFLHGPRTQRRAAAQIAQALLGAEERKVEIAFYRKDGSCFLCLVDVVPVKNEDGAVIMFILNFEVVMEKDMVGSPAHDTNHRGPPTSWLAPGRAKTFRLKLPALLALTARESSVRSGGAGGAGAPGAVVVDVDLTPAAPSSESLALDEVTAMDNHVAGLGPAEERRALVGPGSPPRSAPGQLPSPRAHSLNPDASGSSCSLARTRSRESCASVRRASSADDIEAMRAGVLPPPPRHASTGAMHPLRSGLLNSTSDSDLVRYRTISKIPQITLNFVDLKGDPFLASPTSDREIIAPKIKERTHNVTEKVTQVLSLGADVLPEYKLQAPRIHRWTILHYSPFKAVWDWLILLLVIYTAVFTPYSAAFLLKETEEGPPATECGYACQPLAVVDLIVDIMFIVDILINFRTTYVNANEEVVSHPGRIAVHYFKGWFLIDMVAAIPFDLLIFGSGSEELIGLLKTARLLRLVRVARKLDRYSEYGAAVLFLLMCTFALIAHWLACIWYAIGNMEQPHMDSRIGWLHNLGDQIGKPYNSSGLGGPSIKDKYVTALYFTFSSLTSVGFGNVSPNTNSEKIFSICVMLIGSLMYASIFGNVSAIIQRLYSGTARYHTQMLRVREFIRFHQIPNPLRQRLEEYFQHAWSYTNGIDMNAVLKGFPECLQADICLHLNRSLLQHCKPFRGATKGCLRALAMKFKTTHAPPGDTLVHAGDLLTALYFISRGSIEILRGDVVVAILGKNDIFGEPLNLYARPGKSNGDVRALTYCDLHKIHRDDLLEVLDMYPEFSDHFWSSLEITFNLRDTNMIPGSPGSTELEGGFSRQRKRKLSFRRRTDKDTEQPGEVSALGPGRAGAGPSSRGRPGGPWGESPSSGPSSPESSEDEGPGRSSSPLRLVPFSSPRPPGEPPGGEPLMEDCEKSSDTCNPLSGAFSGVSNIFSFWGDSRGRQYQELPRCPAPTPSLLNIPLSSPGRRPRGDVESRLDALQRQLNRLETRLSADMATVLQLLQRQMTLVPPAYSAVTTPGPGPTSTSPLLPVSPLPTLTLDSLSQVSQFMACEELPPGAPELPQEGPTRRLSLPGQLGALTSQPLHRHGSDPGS

Compound | IC50 (Human BOAT1; [1]) | IC50 (Human BOAT1; phenylalanine uptake) | IC50 (hERG channel)
O=C(/C=C/c1ccc(C(F)(F)F)cc1F)NCC(=O)N1CCCC(c2cccc(C(=O)O)c2)C1 (stereo not drawn) [I-255] |  | 766 nM | > 30000 nM
C[C@@H]1CN(C(=O)CNC(=O)/C=C/c2ccc(C(F)(F)F)cc2F)[C@H](C)CN1CCCC(=O)O [I-199] | 370 nM |  | > 30000 nM
O=C(O)CCCN1CCN(C(=O)CNC(=O)/C=C/c2ccc(C(F)(F)F)cc2F)C(c2ccccc2Cl)C1 (stereo not drawn) [I-233] | 609 nM |  | > 30000 nM
C[C@@H]1CN(C(=O)CNC(=O)/C=C/c2ccc(C(F)(F)F)cc2F)[C@@H](c2ccc(F)cc2)CN1CCCC(=O)O [I-338] |  | 54 nM | > 30000 nM
C[C@@H]1CN(C(=O)CNC(=O)/C=C/c2ccc(C(F)(F)F)cc2F)[C@@H](c2cccc(F)c2)CN1CCCC(=O)O [I-340] |  | 62 nM | > 30000 nM
O=C(/C=C/c1ccc(C(F)(F)F)cc1)NCC(=O)N1CCc2cc([C@@H]3C[C@H]3C(=O)O)ccc2C1 (single isomer, unassigned) [I-289, (1R*,2R*)-2-[2-[2-[[(E)-3-[4-(trifluoromethyl)phenyl]prop-2-enoyl]amino]acetyl]-3,4-dihydro-1H-isoquinolin-6-yl]cyclopropane-1-carboxylic acid] |  | 87 nM | > 30000 nM
CC(C(=O)O)c1ccc2c(c1)CCN(C(=O)CNC(=O)/C=C/c1ccc(C(F)(F)F)cc1)C2 (single isomer, unassigned) [I-286, 2-[2-[2-[[(E)-3-[4-(trifluoromethyl)phenyl]prop-2-enoyl]amino]acetyl]-3,4-dihydro-1H-isoquinolin-6-yl]propanoic acid] |  | 303 nM | > 30000 nM
O=C(/C=C/c1ccc(C(F)(F)F)cc1)NCC(=O)N1CCc2cc(N3CCC(C(=O)O)CC3)ncc2C1 [I-173] | 477 nM |  | > 30000 nM
CC[C@@H]1CN(C(=O)CNC(=O)/C=C/c2ccc(C(F)(F)F)cc2F)[C@@H](c2ccccc2)CN1CCCC(=O)O [I-343] |  | 91 nM | > 30000 nM
C[C@@H]1CN(C(=O)CNC(=O)/C=C/c2ccc(C(F)(F)F)cc2F)[C@@H](c2ccccc2)CN1CCCC(=O)O [I-261] |  | 30 nM | > 30000 nM
C[C@@H]1CN(C(=O)CNC(=O)/C=C/c2ccc(C(F)(F)F)cc2F)[C@@H](c2ccc(F)c(F)c2)CN1CCC(=O)O [I-348] |  | 45 nM | > 30000 nM
O=C(/C=C/c1ccc(C(F)(F)F)cc1)NCC(=O)N1CCc2cc([C@@H]3C[C@H]3C(=O)O)ccc2C1 (single isomer, unassigned) [I-288, (1R*,2R*)-2-[2-[2-[[(E)-3-[4-(trifluoromethyl)phenyl]prop-2-enoyl]amino]acetyl]-3,4-dihydro-1H-isoquinolin-6-yl]cyclopropane-1-carboxylic acid] |  | 152 nM | > 30000 nM
C[C@@H]1CN(C(=O)CNC(=O)/C=C/c2ccc(C(F)(F)F)cc2)[C@@H](c2ccc(F)c(F)c2)CN1CCCC(=O)O [I-350] |  | 184 nM | > 30000 nM
O=C(O)CCCN1CCN(C(=O)CNC(=O)/C=C/c2ccc(C(F)(F)F)cc2F)C(c2cccc(F)c2)C1 (stereo not drawn) [I-239] | 302 nM |  | > 30000 nM
O=C(O)CCCN1C[C@H](c2ccccc2)N(C(=O)CNC(=O)/C=C/c2ccc(C(F)(F)F)cc2F)CC12CC2 [I-341] |  | 1680 nM | > 30000 nM
CC1CN(C(=O)CNC(=O)/C=C/c2ccc(C(F)(F)F)cc2F)CCN1CCCC(=O)O (stereo not drawn) [I-231] | 234 nM |  | > 30000 nM
O=C(O)CCCN1CCN(C(=O)CNC(=O)/C=C/c2ccc(C(F)(F)F)cc2F)C(c2ccc(F)cc2)C1 (stereo not drawn) [I-237] | 199 nM |  | > 30000 nM
O=C(O)CCCN1CCN(C(=O)CNC(=O)/C=C/c2ccc(C(F)(F)F)cc2F)C(c2ccccc2F)C1 (stereo not drawn) [I-240] | 197 nM |  | > 30000 nM

The remaining molecules from weak to strong by IC50 (Human BOAT1; [1]), led by results:

IC50 (Human BOAT1; [1]) | IC50 (Human BOAT1; phenylalanine uptake) | Compound | IC50 (hERG channel)
155 nM |  | O=C(/C=C/c1ccc(C(F)(F)F)cc1)NCC(=O)N1CCc2cc([C@@H]3C[C@H]3C(=O)O)ccc2C1 (racemic) [I-172, (1R*,2R*)-2-[2-[2-[[(E)-3-[4-(trifluoromethyl)phenyl]prop-2-enoylamino]acetyl]-3,4-dihydro-1H-isoquinolin-6-yl]cyclopropanoic acid] | > 30000 nM
149 nM |  | O=C(O)CCc1ccc2c(c1)CCN(C(=O)CNC(=O)/C=C/c1ccc(C(F)(F)F)cc1)C2 [I-174] | > 30000 nM
147 nM |  | O=C(/C=C/c1ccc(C(F)(F)F)cc1F)NCC(=O)N1CCN(C[C@H]2C[C@H](C(=O)O)C2)CC1c1ccc(Cl)cc1 (stereo partly drawn) [I-248] | > 30000 nM
141 nM |  | O=C(O)Cc1ccc2c(c1F)CCN(C(=O)CNC(=O)/C=C/c1ccc(C(F)(F)F)cc1)C2 [I-162] | > 30000 nM
132 nM |  | Cc1cc(CC(=O)O)cc2c1CN(C(=O)CNC(=O)/C=C/c1ccc(C(F)(F)F)cc1)CC2 [I-149] | > 30000 nM
110 nM |  | N#Cc1cc2c(cc1CC(=O)O)CCN(C(=O)CNC(=O)/C=C/c1ccc(C(F)(F)F)cc1F)C2 [I-224] | > 30000 nM
102 nM |  | N#Cc1cc(CC(=O)O)cc2c1CN(C(=O)CNC(=O)/C=C/c1ccc(I)cc1F)CC2 [I-157] | > 30000 nM
100 nM |  | N#Cc1cc(CC(=O)O)cc2c1CN(C(=O)CNC(=O)/C=C/c1ccc(C(F)(F)F)cc1F)CC2 [I-147] | > 30000 nM
99 nM |  | O=C(O)Cc1cc(F)c2c(c1)CCN(C(=O)CNC(=O)/C=C/c1ccc(C(F)(F)F)cc1F)C2 [I-205] | > 30000 nM
86 nM |  | O=C(O)Cc1cc(Cl)c2c(c1)CCN(C(=O)CNC(=O)/C=C/c1ccc(C(F)(F)F)cc1)C2 [I-145] | > 30000 nM
86 nM |  | N#Cc1cc2c(cc1CC(=O)O)CCN(C(=O)CNC(=O)/C=C/c1ccc(I)cc1F)C2 [I-223] | 28500 nM
85 nM |  | O=C(O)Cc1ccc2c(c1)CCN(C(=O)CNC(=O)/C=C/c1ccc(C(F)(F)F)cc1)C2 [I-182] | > 30000 nM
83 nM |  | O=C(O)Cc1ccc2c(c1)CCN(C(=O)CNC(=O)/C=C/c1ccc(I)cc1F)C2 [I-158] | > 30000 nM
67 nM |  | O=C(O)Cc1ccc2c(c1Cl)CCN(C(=O)CNC(=O)/C=C/c1ccc(C(F)(F)F)cc1)C2 [I-146] | 29900 nM
64 nM |  | Cc1ccc([C@H]2CN(CCCC(=O)O)[C@H](C)CN2C(=O)CNC(=O)/C=C/c2ccc(C(F)(F)F)cc2F)cc1 [I-383] | 15200 nM
59 nM |  | O=C(O)Cc1ccc2c(c1)CCN(C(=O)CNC(=O)/C=C/c1ccc(C(F)(F)F)cc1F)C2 [I-187] | > 30000 nM
57 nM |  | N#Cc1c(CC(=O)O)ccc2c1CCN(C(=O)CNC(=O)/C=C/c1ccc(C(F)(F)F)cc1F)C2 [I-151] | > 30000 nM
50 nM |  | O=C(O)CCCN1CCN(C(=O)CNC(=O)/C=C/c2ccc(C(F)(F)F)cc2F)C(c2cccc(Br)c2)C1 (racemic) [I-234, 4-[3-(3-bromophenyl)-4-[2-[[(E)-3-[2-fluoro-4-(trifluoromethyl)phenyl]prop-2-enoyl]amino]acetyl]piperazin-1-yl]butanoic acid] | > 30000 nM
46 nM |  | O=C(O)Cc1ccc2c(c1)CCN(C(=O)CNC(=O)/C=C/c1ccc(I)cc1)C2 [I-183] | > 30000 nM
34 nM |  | O=C(O)Cc1cc(Cl)c2c(c1)CCN(C(=O)CNC(=O)/C=C/c1ccc(C(F)(F)F)cc1F)C2 [I-141] | > 30000 nM
31 nM |  | C[C@@H]1CN(C(=O)CNC(=O)/C=C/c2ccc(C(F)(F)F)cc2F)[C@@H](c2cccc(C3CC3)c2)CN1CCC(=O)O [I-384] | 15800 nM
